# Laboratory results from patent US20230137092A1, “Composition and Method for the Treatment and Prevention of Cardiac, Pulmonary, Dermal, and Renal Fibrosis” (EMERALD HEALTH PHARMACEUTICALS INC., priority 2020, published 2023).
# Columns and labels:
# E2F pathway = experiment: Real-time quantitative PCR of E2F pathway markers in cardiac tissue, Ang II preventive model; assay type: in vivo, mouse; settings: Ang II mice; #p<0.05 versus Ang II group
# [1] = tested on: Ang II-induced aortic fibrosis; experiment: Ang II therapeutic model: aorta adventitial collagen, Sirius red; assay type: in vivo, mouse; settings: Ang II four weeks, 20 mg/kg oral last two weeks, ###p<0.001 versus Ang II group
# Procedure: For the therapeutic model, infusion of Ang II for four weeks and the compound of Formula (VIII) (20 mg/kg) was administrated after two weeks of pump implantation. Subcutaneous infusion of Ang II using ALZET osmotic minipumps was used to study the preventive effects of the compound ALZET® osmotic minipumps (Model #2004, Charles Rives, Barcelona, Spain) delivering of Ang II (500 ng kg^−1 min^−1) (Sigma-Aldrich, Madrid, Spain) for four weeks. Compound treatment was daily administered in parallel, two weeks after the implantation of the subcutaneous pump, beneath the midscapular loose skin and consisted of daily oral gavage of compound of Formula (VIII) (20 mg/kg) or vehicle (Corn Oil/Maisine CC, 1/1). Mice were acclimated to manipulators for a week previously to the experiments in order to reduce stress and allow the detection of subtle changes in behavior by researchers. […] Neither piloerection nor hunched appearances were appreciated during the experimental procedures. Mice were sacrificed by cervical dislocation and the heart, aorta, kidney, and lung were removed and processed for histological examination or were frozen for further analysis.
# [2] = tested on: human immortalized cardiac fibroblasts (hICF); experiment: Fibroblast differentiation into myofibroblasts: α-SMA expression in hICF; assay type: cell-based; settings: hICF treated with TGF-β or Ang II; pretreatment with compound
# Text: The profibrotic activity of Ang II on cardiac fibroblasts in vitro and in vivo has been extensively documented (H. H. Sigusch et al., 1996, Cardiovasc Res, 31:546-554). To study myofibroblast differentiation in vitro, immortalized cardiac fibroblasts (hICF) were stained with for α-SMA expression, a specific marker for myofibroblasts differentiation. Immortalized primary human cardiac fibroblasts (hICF) with SV40 Large T antigen were obtained from Innoprot SL (Derio, Spain) and cultured in low passages (<5 passages). The cells were maintained in a humidified atmosphere at 37° C. containing 5% CO2, 10% fetal bovine serum (FBS) and 1% (v/v) penicillin/streptomycin in Fibroblast Medium-2 (P60108-2, Innoprot, Derio, Spain). Ang II was purchased from Sigma-Aldrich Co (A9525, Sigma, Madrid, Spain) and TGFb1 (Transforming Growth Factor-b)-1 (10 ng/mL) was obtained from ImmunoTools GmbH (Friesoythe, Germany). Both TGF-β and Ang II induced α-SMA protein expression in cultured hICF and pretreatment with compound of Formula (VIII) decreased α-SMA expression. The differentiation to myofibroblast was associated with morphological changes of cellular hypertrophy.
smiles,measurement,setting,value
C=C(C)C1CCC(C)=C[C@H]1C1=C(O)C(=O)C(CCCCC)=C(NCc2ccccc2)C1=O (some centres unmarked) [Formula (VIII)],CDK1 gene expression in cardiac tissue,E2F pathway,down regulated
same,MKi67 gene expression in cardiac tissue,E2F pathway,down regulated
same,TOP2A gene expression in cardiac tissue,E2F pathway,down regulated
same,aorta collagen content in adventitial layer,[1],antifibrotic activity
same,α-SMA expression,[2],decreased
